Series [1] concerns Panel NCI-60 (60 carcinoma cell lines). Put plainly: Antiproliferative activity against human Panel NCI-60 (60 carcinoma cell lines) cells assessed as decrease in cell count incubated for 48 hrs by SRB assay. The class given is functional. A general note: In SRB staining, fixed cells bind dye roughly in proportion to their protein.
For series [2] the test system is unchanged. In words: Growth inhibition of human Panel NCI-60 (60 carcinoma cell lines) cells incubated for 48 hrs by SRB assay. In kind it is functional.
Series [3] deals with T1, NAD-dependent protein deacetylase sirtuin-2 (Homo sapiens, UniProt Q8IXJ6).
T1 sequence (Q8IXJ6 whole entry): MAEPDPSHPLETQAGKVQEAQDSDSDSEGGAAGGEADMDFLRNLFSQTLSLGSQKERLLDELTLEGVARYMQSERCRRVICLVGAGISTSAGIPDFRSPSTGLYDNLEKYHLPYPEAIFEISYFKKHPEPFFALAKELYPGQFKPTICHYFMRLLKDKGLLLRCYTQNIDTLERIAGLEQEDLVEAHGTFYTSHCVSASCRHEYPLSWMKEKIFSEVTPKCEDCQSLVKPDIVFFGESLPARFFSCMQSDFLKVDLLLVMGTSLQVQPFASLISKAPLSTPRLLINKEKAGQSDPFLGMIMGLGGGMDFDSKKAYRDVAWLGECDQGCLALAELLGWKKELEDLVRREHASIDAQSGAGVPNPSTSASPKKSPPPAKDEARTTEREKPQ
In words: Inhibition of recombinant SIRT2 (unknown origin) deacetylase activity using Ac-RHKK(Ac)-MCA as substrate incubated for 60 mins in presence of NAD by fluorogenic assay.

Series [4] concerns Panel NCI-60 (60 carcinoma cell lines). In words: Antiproliferative activity against human Panel NCI-60 (60 carcinoma cell lines) cells assessed as inhibition of cell growth incubated for 48 hrs by SRB assay. The class given is functional.
Series [5] addresses T2, NAD-dependent protein deacetylase sirtuin-2 (Homo sapiens) (UniProt Q8IXJ6).
T2 sequence (whole entry): T1 sequence (Q8IXJ6 whole entry)
In words: Inhibition of SIRT2 in human MCF7 cells assessed as induction of eIF5A acetylation incubated for 24 hrs by immunoblotting analysis. The conditions noted are these: dose 2-10 µM. The class given is cell-based.

The subject of series [6] is MCF7. Put plainly: Cell cycle arrest in human MCF7 cells assessed as accumulation of S phase cells incubated for 24 hrs by flow cytometric analysis (reference value: 26.6 %). In kind it is functional. Background: A flow cytometer gives signals particle by particle.
The nature of series [7]: Cytotoxicity against human PBMC cells assessed as cell viability at 10 uM incubated for 2 days by MTT assay relative to control. The following applies: time 2 day, read-out: Activity. In kind it is toxicity, cell-based. Background: Tetrazolium assays rely on reduction of a dye to a coloured formazan, in cell work by metabolically active cells.
Series [8] concerns MCF7. In words: Cell cycle arrest in human MCF7 cells assessed as G0-G1 phase cells incubated for 24 hrs by flow cytometric analysis (reference value: 55.8 %). In kind it is functional.
The nature of series [9]: Cytotoxicity against human PBMC cells assessed as cell viability at 1 uM incubated for 2 days by MTT assay relative to control. The class given is toxicity, cell-based. The following applies: time 2 day, read-out: Activity.
The nature of series [10]: Selectivity ratio of IC50 for antiproliferative activity against human MOLT-4 cells to IC50 for cytotoxicity against human PBMC cells. The class given is toxicity, cell-based. The following applies: MOLT-4 cells and PBMC cells, read-out: Ratio IC50.
A short description of series [11]: Cytotoxicity against human PBMC cells assessed as cell viability incubated for 2 days by MTT assay. The class given is toxicity, cell-based.
The subject of another series is DNA. Put plainly: Induction of DNA (unknown origin) cleavage. In kind it is nucleic-acid assay.
Series [12] is described as follows: Selectivity ratio of IC50 for antiproliferative activity against spontaneous remission leukemia cell line (unknown origin) to IC50 for cytotoxicity against human PBMC cells. In kind it is toxicity, cell-based. The conditions noted are these: read-out: Ratio IC50.
In series [13] the test system is MCF7. Put plainly: Cell cycle arrest in human MCF7 cells assessed as accumulation of G2/M phase cells incubated for 24 hrs by flow cytometric analysis (reference value: 18 %). The class given is functional.

Structures are written as SMILES. pIC50: −log10 of the molar value. Activity calls are given as the source filed them. The rule behind the calls is not given here.

Turning to `Cc1ccc(C(SCCNCc2cc(N(C)C)ccn2)(c2ccccc2)c2ccccc2)cc1`, the LC50 (50% net cell kill) in [1] was ≥ 4.65 µM. Besides, in [2], the GI50 (usually the concentration at which growth is held to half of that of the control) came to 0.37 µM. In addition, the negative logarithm of the IC50 (pIC50) (commonly −log10 of the IC50, conventionally taken in molar units) in series [3] was 5.00. Also, in [4], the TGI – broadly, the concentration giving total growth inhibition – came out at 1.57 µM.

For the compound `CCN(CC)c1ccnc(CNCCSC(c2ccccc2)(c2ccccc2)c2ccc(C)cc2)c1`, in series [1], the LC50 (50% net cell kill) is ≥ 5.59 µM. Besides, in series [2], the GI50 is 1.38 µM. In [3], the pIC50 is 4.56. Moreover, in [4], the TGI came to 2.85 µM.

In turn, `CN(C)c1ccnc(CNCCc2cn(C(c3ccccc3)(c3ccccc3)c3ccccc3)cn2)c1` came in with a GI50 in series [2] of 0.26 µM. For the same compound, in series [3], the pIC50 was 5.06. Also, in series [4], the TGI amounted to 1.19 µM.

In the case of `CN(C)c1ccnc(CNCCSC2(c3ccccc3)c3ccccc3CCc3ccccc32)c1`, the concentration for 50% growth inhibition (GI50) in series [2] was 1.51 µM. The pIC50 in [3] was 4.97. In addition, in series [4], the TGI was ≥ 2.93 µM.

Turning to `CN(C)c1ccnc(CNCCSC2(c3ccc(C(F)(F)F)cc3)c3ccccc3CCc3ccccc32)c1`, the LC50 (50% net cell kill) in series [1] was ≥ 4.77 µM. The compound also returned a GI50 in [2] of 0.18 µM. Besides, in series [3], the pIC50 is 4.30. The TGI in [4] amounted to 0.37 µM.

`CN(C)c1ccnc(CNCCSC2(c3ccccc3)c3ccccc3C=Cc3ccccc32)c1`: the LC50 (50% net cell kill) in series [1] was ≥ 2.17 µM. The GI50 in series [2] stood at 0.22 µM. Also, the pIC50 in [3] is 4.92. Also, in series [4], the TGI was ≥ 0.5 µM.

As for `COc1ccc(C2(SCCNCc3cc(N(C)C)ccn3)c3ccccc3CCc3ccccc32)cc1`, in [2], the GI50 amounted to 0.19 µM. For the same compound, the pIC50 in series [3] is 5.06. Further, in [4], the TGI was 0.44 µM.

`CN(C)c1ccnc(CNCCCSC(c2ccccc2)(c2ccccc2)c2ccccc2)c1` gave a 50% growth inhibitory concentration (GI50) in [2] of 1.55 µM. In series [3], the pIC50 is 4.58. In [4], the TGI stood at 3.19 µM.

Turning to `COc1ccc(C(SCCNCc2cc(N(C)C)ccn2)(c2ccccc2)c2ccccc2)cc1`, the LC50 (50% net cell kill) in series [1] was ≥ 1.82 µM. In [2], growth was halved (GI50) at 0.21 µM. In series [3], the pIC50 was 4.91. Moreover, the TGI in series [4] is ≥ 0.48 µM.

Regarding `CCN(CC)c1ccnc(CNCCSC(c2ccccc2)(c2ccccc2)c2ccc(OC)cc2)c1`, the LC50 (50% net cell kill) in series [1] is ≥ 5.59 µM. The compound further gave a concentration for 50% growth inhibition (GI50) in series [2] of 1.3 µM. In addition, the negative logarithm of the IC50 (pIC50) in series [3] was 4.85. In addition, the TGI in [4] turned out to be 3.06 µM.

Consider `CN(C)c1ccnc(CNCCSC2c3ccccc3C=Cc3ccccc32)c1`, for which the pIC50 in series [3] was < 4.30.

`COc1ccc(C2(SCCNCc3cc(N(C)C)ccn3)c3ccccc3C=Cc3ccccc32)cc1`: the LC50 (50% net cell kill) in [1] was ≥ 0.72 µM. For the same compound, in series [2], the GI50 is 0.04 µM. Further, in series [5], the inhibition result is “Dose-Dependent Effect”. For the same compound, the Activity in the series with MCF7 [6] was found to be 29.4%; in the series with MCF7 [8], 26.7%; with MCF7 [13] it was 46.5%. In addition, the pIC50 in [3] is 5.25. Moreover, the TGI in [4] was ≥ 0.07 µM. In series [7], the viability at 48 h, 10 µM was determined as 16.2%. The viability at 48 h, 1 µM in series [9] amounted to 84.9%. Also, the selectivity ratio was determined as 2.2 in series [10] and 25 in series [12]. Moreover, in series [11], the half-maximal inhibitory concentration (IC50) – broadly, the concentration needed to halve the response being measured – at 2 days is > 1 µM. The outcome with DNA was inactive.

`CCN(CC)c1ccnc(CNC(Cc2cn(C(c3ccccc3)(c3ccccc3)c3ccccc3)cn2)C(=O)OC)c1` (centres undefined): the pIC50 in [3] is 5.12.

In turn, `CCN(CC)c1ccnc(CNCCc2cn(C(c3ccccc3)(c3ccccc3)c3ccccc3)cn2)c1` returned a GI50 in [2] of 1.03 µM. Further, the pIC50 in series [3] was 4.81. In series [4], the TGI was ≥ 3.2 µM.

On to `CN(C)c1ccnc(CNCCSC2(c3ccc(C(F)(F)F)cc3)c3ccccc3C=Cc3ccccc32)c1`, for which the LC50 (50% net cell kill) in series [1] was ≥ 10 µM. The compound further had a 50% growth inhibitory concentration (GI50) in series [2] of 0.61 µM. The pIC50 in series [3] was < 4.30. Besides, the TGI in series [4] came out at 4.39 µM.

For the origin of these results see ChEMBL document CHEMBL5500335, “Ligand-based design and synthesis of new trityl histamine and trityl cysteamine derivatives as SIRT2 inhibitors for cancer therapy” (Eur J Med Chem, 2024).
